The test system of assay [1] is Histomonas meleagridis. Description: Prophylactic activity in turkeys against Histomonas meleagridis. The class given is in vivo. To be noted: turkeys inoculated orally with 500 Heterakis gallinae ova. The procedure:
Gentamicin A was administered to groups of turkeys at dosage levels of 5, 10, and 15 mg. per turkey per day in aqueous solution. Two days after the initiation of the drug, the turkeys were inoculated orally with 500 Heterakis gallinae ova (the intermediate host carrier of Histomonas). A single group of turkeys received 0.035% of gentamicin A in their feed for six days. Untreated infected controls were also carried in each experiment. The test is continued for twelve days and the birds are autopsied on the thirteenth day. Infection is usually manifested principally in two areas, the cecum and the liver which are the areas examined during the autopsy.

Another assay concerns Syphacia obvelata. In words: Stated anthelmintic activity against pinworms such as Syphacia obvelata.
Assay [2] concerns Histomonas meleagridis. Description: Stated activity against Histomonas meleagridis.
For the next assay, the system named is Trichomonas foetus. Description: Stated activity against Trichomonas foetus.
The subject of a further assay is Entamoeba histolytica. In words: Stated activity against Entamoeba histolytica.
Another assay concerns bacteria. To be noted: cited from earlier work.
In assay [3] the test system is Trichomonas vaginalis. Description: In vitro activity against Trichomonas vaginalis. The conditions noted are these: Trichomonas vaginalis; for MIC: read-out: Minimal 99% Suppression Level; for MBC: read-out: Minimal Cidal Level. The class given is cell-based. From the text:
In Table VI below is set forth the in vitro activity of the compounds of this invention against T. vaginalis. The test procedure used was substantially as described by R. J. Schnitzer on pages 289-331 in Experimental Chemotherapy, Volume 1, Academic Press, New York (1963).

Assay [4] concerns Trichomonas vaginalis. Description: Stated activity against Trichomonas vaginalis.

SMILES strings stand for the structures. In brackets after ≈: the same amount, converted by molar mass. Read-outs that look alike come from different tables or passages of the source.

In the case of `CNC1C(O)COC(OC2C(N)CC(N)C(OC3OC(CO)C(O)C(O)C3N)C2O)C1O` (centres unmarked) [Gentamicin A], the “minimum dosage level with prophylactic activity” value with Histomonas meleagridis [1] is listed as 10 mg. per bird. Besides, the “anthelmintic activity (in words)” value in the assay with Syphacia obvelata was “effective”. Also, the “antiprotozoal activity (in words)” value with Histomonas meleagridis [2], with Trichomonas foetus, with Entamoeba histolytica and in the assay with Trichomonas vaginalis [4] was “effective” in each case. Also, the “antibiotic activity (in words)” value with bacteria is given as “rather weak antibiotic activity”. The MIC in the assay with Trichomonas vaginalis [3] (24 hours) was 10 µg/mL (≈ 21.3 µM); in the assay on Trichomonas vaginalis [3] (48 hours), 5 to 10 µg/mL (≈ 10.7 to 21.3 µM). Besides, the MBC turned out to be 25 µg/mL (≈ 53.4 µM) in the assay on Trichomonas vaginalis [3] (24 hours) and 10 µg/mL (≈ 21.3 µM) with Trichomonas vaginalis [3] (48 hours).
